Test results published in article PMC5634933 (Biochemistry, 2017).
Like-named read-outs stand apart in the source and are kept apart here. Values belong to the molecule of their own block, whether it stands above or below them.

How the values were obtained:
Assay type in all cases: biochemical
WT pol β [1] = molecular target: WT pol β (Homo sapiens, UniProt P06746); conditions: WT; for Kd / kpol: 37 °C
I260M pol β = I260M pol β (Homo sapiens, UniProt P06746, I260M); conditions: for Kd / kpol: 37 °C
WT pol β [2] = conditions: D kpol WT analogue/D kpol I260M analogue
[3] = A-G: misincorporation of dGTP (analogue) opposite template A
[4] = I260M, A-G: misincorporation of dGTP (analogue) opposite template A
[5] = A-T: correct incorporation of dTTP (analogue) opposite template A
[6] = I260M, A-T: correct incorporation of dTTP (analogue) opposite template A

Efficiency (kpol/Kd) (WT pol β [1]; [3]): 22 ± 8.5 M⁻¹ s⁻¹
Kd (WT pol β [1]; [3]): 626 ± 220 µM
kpol (WT pol β [1]; [3]): 0.014 ± 0.002 s⁻¹
Efficiency (kpol/Kd) (I260M pol β; [4]): 18 ± 9.1 M⁻¹ s⁻¹
Kd (I260M pol β; [4]): 795 ± 373 µM
kpol (I260M pol β; [4]): 0.014 ± 0.003 s⁻¹
Molecule: Nc1nc2c(ncn2[C@H]2C[C@H](O)[C@@H](COP(=O)(O)OP(=O)(O)OP(=O)(O)O)O2)c(=O)[nH]1 [A-G O, dGTP, reference compound]

Efficiency (kpol/Kd) (WT pol β [1]; [5]): 120000 ± 30000 M⁻¹ s⁻¹
Kd (WT pol β [1]; [5]): 6.7 ± 1.8 µM
kpol (WT pol β [1]; [5]): 0.80 ± 0.10 s⁻¹
Efficiency (kpol/Kd) (I260M pol β; [6]): 60000 ± 20000 M⁻¹ s⁻¹
Kd (I260M pol β; [6]): 5 ± 1.5 µM
kpol (I260M pol β; [6]): 0.30 ± 0.01 s⁻¹
Molecule: Cc1cn([C@H]2C[C@H](O)[C@@H](COP(=O)(O)OP(=O)(O)CP(=O)(O)O)O2)c(=O)[nH]c1=O [A-T CH2, β,γ-CH2 dTTP]

Efficiency (kpol/Kd) (WT pol β [1]; [5]): 1.22e+06 ± 140000 M⁻¹ s⁻¹
Kd (WT pol β [1]; [5]): 10.5 ± 1.1 µM
kpol (WT pol β [1]; [5]): 12.8 ± 0.60 s⁻¹
kpol (WT pol β [1]; A-T: correct incorporation of dTTP (analogue) opposite template A, listed as dTTP): 12.8 s⁻¹
Efficiency (kpol/Kd) (I260M pol β; [6]): 200000 ± 80000 M⁻¹ s⁻¹
Kd (I260M pol β; [6]): 40.1 ± 15.5 µM
kpol (I260M pol β; [6]): 7.90 ± 1.30 s⁻¹
kpol (I260M pol β; I260M, A-T: correct incorporation of dTTP (analogue) opposite template A, listed as dTTP): 7.9 s⁻¹
Kd of I260M relative to WT (fold higher) (I260M pol β; correct parent dTTP): 4 fold
Molecule: Cc1cn([C@H]2C[C@H](O)[C@@H](COP(=O)(O)OP(=O)(O)OP(=O)(O)O)O2)c(=O)[nH]c1=O [A-T O, dTTP, reference compound]

D kpol (analogue/parent) (WT pol β [1]; D kpol analogue/D kpol parent): 0.9
F (analogue/parent) (WT pol β [1]; F analogue/F parent): 0.5
F analogue (fidelity) (WT pol β [1]; dTTP (correct) vs dGTP (incorrect) analogue opposite template A): 27818
D kpol(c/i) analogue (WT pol β [1]; discrimination at kpol = kpol(correct)/kpol (incorrect)): 842.9
D kpol (analogue/parent) (I260M pol β; I260M, D kpol analogue/D kpol parent): 1.0
F (analogue/parent) (I260M pol β; I260M, F analogue/F parent): 0.6
F analogue (fidelity) (I260M pol β; I260M, dTTP (correct) vs dGTP (incorrect) analogue opposite template A): 7060
D kpol(c/i) analogue (I260M pol β; I260M, discrimination at kpol = kpol(correct)/kpol (incorrect)): 551.7
I260M/WT analogue (I260M pol β; [F I260M(analogue)]/[F WT (analogue)]): 0.3
I260M/WT (analogue/parent) (I260M pol β; [F I260M(analogue/parent)]/[F WT (analogue/parent)]): 1.3
Molecule: CHCl
D kpol analogue WT/I260M (WT pol β [2]): 1.5
